Assay results published in publication PMC4143145 (European journal of medicinal chemistry, 2014).

Experiments:
Mcl-1 = assay: Western blot in HeLa cells; type: cell-based, human; settings: 25 µM, 24 h
[1] = tested on: PBL not stimulated with PHA; assay: Cytotoxicity for resting peripheral blood lymphocytes; type: cell-based; settings: Homo sapiens, Lymphocyte, read-out: IC50 PBLresting
aurora kinase A = assay: Western blot in HeLa cells; type: cell-based, human; settings: 25 µM, 24 h
cdc25C = assay: Western blot in HeLa cells; type: cell-based, human; settings: 25 µM; for cdc25C forms: 24 h; for cdc25c expression: 48 h
γ-H2A.X = assay: Western blot in HeLa cells; type: cell-based, human; settings: 25 µM, 24 h
cyclin B = assay: Western blot in HeLa cells; type: cell-based, human; settings: 25 µM
HeLa cells [2] = assay: Immunofluorescence of the microtubule network; type: cell-based, human; settings: 25 µM, 24 h
Bcl-2 = assay: Western blot in HeLa cells; type: cell-based, human; settings: 25 µM, 24 h
[3] = tested on: Burkitt lymphoma CA46 cells; assay: Growth inhibition of Burkitt lymphoma CA46 cells; type: cell-based; settings: Homo sapiens, CA46, read-out: IC50 in CA46 cells
tubulin [4] = settings: cited from earlier work
tubulin [5] = settings: highest concentration examined 100 µM; cited from earlier work
HeLa cells [6] = assay: Annexin-V/PI flow cytometry; type: cell-based, human; settings: 24 or 48 h

Compound | Mcl-1 band (Mcl-1) | IC50 [1] [µM] | aurora kinase levels (aurora kinase A) | cdc25c expression (cdc25C) | expression of γ-H2A.X (γ-H2A.X) | cyclin B expression (cyclin B; 24 h) | cyclin B expression (cyclin B; 48 h) | cells with induced spherical morphology (microtubule rearrangement) (HeLa cells [2]) | further results
COc1ccc2c(c1OC)C(=O)O[C@@H]2[C@H]1c2c(c(-c3ccccc3)c3c(c2OC)OCO3)CCN1C [Compound 4, 9′-Phenylnoscapine] | strongly reduced | > 200 | increased | strongly decreased | marked increase | increased expression | disappearance |  | cdc25C forms (cdc25C): slower migrating forms
COc1ccc2c(c1OC)C(=O)O[C@@H]2[C@H]1c2c(c(C)c3c(c2OC)OCO3)CCN1C [Compound 3, 9′-Methylnoscapine] | strongly reduced | > 200 | increased |  | marked increase | increased expression | disappearance | 70–80% | Bcl-2 expression (Bcl-2): reduced
COc1ccc2c(c1OC)C(=O)O[C@@H]2[C@H]1c2c(c(-c3ccc4ccccc4c3)c3c(c2OC)OCO3)CCN1C [Compound 9, 9′-(2-Naphthyl)-noscapine] |  | > 200 |  |  |  |  |  |  | 
COc1ccc(/C=C\c2cc(OC)c(OC)c(OC)c2)cc1O [CA-4, combretastatin A-4] |  |  |  |  |  |  |  |  | IC50 [3]: 0.02 ± 0.007 µM
COc1ccc(-c2c3c(c(OC)c4c2OCO4)[C@H]([C@H]2OC(=O)c4c2ccc(OC)c4OC)N(C)CC3)cc1 [Compound 8, 9′-(4-Methoxyphenyl)-noscapine] |  | > 200 |  |  |  |  |  |  | 
COc1ccc2c(c1OC)C(=O)O[C@@H]2[C@H]1c2c(cc3c(c2OC)OCO3)CCN1C [Compound 1, (S)-6,7-dimethoxy-3-((R)-4′-methoxy-6′-methyl-5′,6′,7′,8′-tetrahydro[1,3]dioxolo-[4,5]isoquinolin-5′-yl)isobenzofuran-1(3H)-one] |  |  |  |  |  |  |  |  | inhibition of [3H]colchicine binding to tubulin (tubulin [4]): without success; inhibition of colchicine binding (fluorescence) (tubulin [5]): no activity
COc1cccc(-c2c3c(c(OC)c4c2OCO4)[C@H]([C@H]2OC(=O)c4c2ccc(OC)c4OC)N(C)CC3)c1 [Compound 7, 9′-(3-Methoxyphenyl)-noscapine] |  | > 200 |  |  |  |  |  | 70–80% | 
COc1ccccc1-c1c2c(c(OC)c3c1OCO3)[C@H]([C@H]1OC(=O)c3c1ccc(OC)c3OC)N(C)CC2 [Compound 6, 9′-(2-Methoxyphenyl)-noscapine] |  | > 200 |  |  |  |  |  |  | 
COc1ccc2c(c1OC)C(=O)O[C@@H]2[C@H]1c2c(c(Br)c3c(c2OC)OCO3)CCN1C [Compound 2, 9′-bromonoscapine, reference compound] | strongly reduced | > 200 |  | strongly decreased |  |  |  | 70–80% | Bcl-2 expression (Bcl-2): reduced; annexin-V positive cells (apoptosis) (HeLa cells [6]): slightly more active than the other three compounds; inhibition of colchicine binding (fluorescence) (tubulin [5]): inhibition of colchicine binding
COc1ccc2c(c1OC)C(=O)O[C@@H]2[C@H]1c2c(c(-c3ccc(C)cc3)c3c(c2OC)OCO3)CCN1C [Compound 5, 9′-(4-Methylphenyl)-noscapine] |  | > 200 | increased | strongly decreased | marked increase | increased expression | disappearance |  | cdc25C forms (cdc25C): slower migrating forms
